From paper PMC3702004, “Comparison of Intake and Systemic Relative Effect Potencies of Dioxin-like Compounds in Female Mice after a Single Oral Dose” (Environmental Health Perspectives, 2013)

Each molecule was assayed on Cyp1b1 mRNA in liver (assay: Cyp1b1 gene expression in liver (real-time PCR)). Conditions: dose metric Adm dose; 3 days after single oral dose.
Assay type: in vivo, female C57BL/6 mice
Procedure: Animals. Eight-week-old female C57BL/6 mice (Harlan laboratories, Venray, the Netherlands) were randomly assigned to treatment groups (six animals per group) and allowed to acclimate for 1.5 weeks. The animals were housed in groups in standard cages and conditions (23 ± 2°C, 50–60% relative humidity, 12-hr dark/light cycle) with free access to food and water. Mice received a single dose of test compound by oral gavage at a dosing volume of 10 mL/kg body weight (BW). Mice treated with corn oil vehicle (10 mL/kg BW) served as controls. For each congener, five different doses were administered, ranging from 0.5–100 μg/kg BW (TCDD) to 5,000–500,000 µg/kg BW (PCB-153). Detailed information on doses is provided in Supplemental Material, Table S1 (http://dx.doi.org/10.1289/ehp.1206336). On day 3 after dosing, animals were euthanized by CO2/O2 asphyxiation, and blood was immediately collected from the abdominal aorta. The liver, thymus, spleen, and adipose tissue were removed, weighed (liver, thymus, and spleen), snap frozen, and stored at –80°C. All animal treatments were performed with permission of the Animal Ethical Committee (DEC Utrecht) and performed according to the [Law on Animal Experiments (1977)]. Animals were treated humanely and with regard for alleviation of suffering.
RNA isolation and quantitative real-time polymerase chain reaction (PCR). Total RNA was isolated from liver and PBLs using a QIAGEN RNeasy kit (QIAGEN). Purity and concentration of the isolated RNA was determined by measuring the absorbance ratio at 260/280 nm and 230/260 nm with a Nanodrop 2000 spectrophotometer (Thermo Scientific, Asheville, NC, USA). RNA was reverse transcribed to complementary DNA (cDNA) using the iScript cDNA synthesis Kit (Bio-Rad, Veenendaal, the Netherlands). Quantitative real-time PCR analyses were performed using the iQ Real-Time PCR Detection System with SYBR green (Bio-Rad). Amplification reactions were set up with […] containing 12.5 μL iQ SYBR Green Supermix (Bio-rad), 0.5 μL distilled H2O, 1 μL (10 μM) forward primer, 1 μL (10 μM) reverse primer, and 10 μL first strand cDNA (10X diluted). Primer sequences were as follows: Cyp1a1: forward-5´-GGTTAACCATGACCGGGAACT-3´ and reverse-5´-TGCCCAAACCAAAGAGAGTGA-3´ ([Schulz et al. 2012]); Cyp1a2: forward-5´-ACATTCCCAAGGAGCGCTGTATCT-3´ and reverse-5´-GTCGATGGCCGAGTTGTTATTGGT-3´ ([Flaveny et al. 2010]); Cyp1b1: forward-5´-GTGGCTGCTCATCCTCTTTACC-3´ and reverse-5´-CCCACAACCTGGTCCAACTC-3´ ([Berge et al. 2004]); β-actin: forward-5´-ATGCTCCCCGGGCTGTAT-3´ and reverse-5´-CATAGGAGTCCTTCTGACCCATTC-3´ ([Schulz et al. 2012]). All primers were run through the National Center for Biotechnology Information Primer-BLAST database (http://www.ncbi.nlm.nih.gov/tools/primer-blast/) to confirm specificity and validate for optimal annealing temperature (60°C for all primers) and efficiency. The efficiency of all primer pairs was 98–102% (tested at 60°C). The following program was used for denaturation and amplification of cDNA: 3 min at 95°C, followed by 40 cycles of 15 sec at 95°C and 45 sec at 60°C. Gene expression for each sample was expressed as threshold cycle (Ct), normalized to the reference gene β-actin (ΔCt). We calculated fold induction relative to the control group.
Data analysis. We obtained concentration–response curves using a sigmoidal dose–response nonlinear regression curve fit with variable slope (GraphPad Prism 6.01; GraphPad Software Inc., San Diego, CA, USA):
In this Hill equation, y is the dependent variable (EROD activity or fold induction of mRNA levels), x the independent variable (administered or systemic dose), E0 is the estimated background response level, Emax is the maximum response, b is the estimated median effective concentration (EC50), and n is the shaping parameter of the Hill curve.
Using the congener-specific BMR20TCDD concentration, REPs were calculated relatively to TCDD: […]
In the case of `Clc1cc2oc3c(Cl)c(Cl)c(Cl)cc3c2cc1Cl` [Congener 4-PeCDF, 2,3,4,7,8-pentachlorodibenzofuran], the “BMR20TCDD Liver Cyp1b1 mRNA” value is reported as 150 µg/kg BW.
For `Clc1ccc(-c2cc(Cl)c(Cl)c(Cl)c2Cl)cc1Cl` [PCB-156, 2,3,3´,4,4´,5-hexachlorobiphenyl], the “BMR20TCDD Liver Cyp1b1 mRNA” value was 95,664 µg/kg BW.
In the case of `Clc1cc2c(cc1Cl)Oc1c(cc(Cl)c(Cl)c1Cl)O2` [PeCDD, 1,2,3,7,8-pentachlorodibenzodioxin], the “BMR20TCDD Liver Cyp1b1 mRNA” value is reported as 10.1 µg/kg BW.
For `Clc1cc2c(cc1Cl)Oc1cc(Cl)c(Cl)cc1O2` [TCDD, 2,3,7,8-tetrachlorodibenzodioxin, reference compound], the “BMR20TCDD Liver Cyp1b1 mRNA” value was 3.55 µg/kg BW.

Same assay, conditions: dose metric Syst adipose; 3 days after single oral dose
For `Clc1cc2oc3c(Cl)c(Cl)c(Cl)cc3c2cc1Cl` [Congener 4-PeCDF, 2,3,4,7,8-pentachlorodibenzofuran], the “BMR20TCDD Liver Cyp1b1 mRNA” value was 461 ng/g lipid.
`Clc1ccc(-c2cc(Cl)c(Cl)c(Cl)c2Cl)cc1Cl` [PCB-156, 2,3,3´,4,4´,5-hexachlorobiphenyl] was tested, and the “BMR20TCDD Liver Cyp1b1 mRNA” value was 745,126 ng/g lipid.
In the case of `Clc1cc2c(cc1Cl)Oc1c(cc(Cl)c(Cl)c1Cl)O2` [PeCDD, 1,2,3,7,8-pentachlorodibenzodioxin], the “BMR20TCDD Liver Cyp1b1 mRNA” value is reported as 19.4 ng/g lipid.
In the case of `Clc1cc2c(cc1Cl)Oc1cc(Cl)c(Cl)cc1O2` [TCDD, 2,3,7,8-tetrachlorodibenzodioxin, reference compound], the “BMR20TCDD Liver Cyp1b1 mRNA” value is reported as 10.3 ng/g lipid.

Same assay, conditions: dose metric Syst plasma; 3 days after single oral dose
For `Clc1cc2oc3c(Cl)c(Cl)c(Cl)cc3c2cc1Cl` [Congener 4-PeCDF, 2,3,4,7,8-pentachlorodibenzofuran], the “BMR20TCDD Liver Cyp1b1 mRNA” value was 44.6 ng/g lipid.
For `Clc1ccc(-c2cc(Cl)c(Cl)c(Cl)c2Cl)cc1Cl` [PCB-156, 2,3,3´,4,4´,5-hexachlorobiphenyl], the “BMR20TCDD Liver Cyp1b1 mRNA” value was 553,459 ng/g lipid.
`Clc1cc2c(cc1Cl)Oc1c(cc(Cl)c(Cl)c1Cl)O2` [PeCDD, 1,2,3,7,8-pentachlorodibenzodioxin] was tested, and the “BMR20TCDD Liver Cyp1b1 mRNA” value was 18.5 ng/g lipid.
With `Clc1cc2c(cc1Cl)Oc1cc(Cl)c(Cl)cc1O2` [TCDD, 2,3,7,8-tetrachlorodibenzodioxin, reference compound] the “BMR20TCDD Liver Cyp1b1 mRNA” value was 11.6 ng/g lipid.

Same assay, conditions: relative to TCDD; dose metric Adm dose (µg/kg BW)
For `Clc1cc2oc3c(Cl)c(Cl)c(Cl)cc3c2cc1Cl` [Congener 4-PeCDF, 2,3,4,7,8-pentachlorodibenzofuran], the “REP Liver Cyp1b1 mRNA” value was 0.02.
With `Clc1ccc(-c2cc(Cl)c(Cl)c(Cl)c2Cl)cc1Cl` [PCB-156, 2,3,3´,4,4´,5-hexachlorobiphenyl] the “REP Liver Cyp1b1 mRNA” value was 0.00004.
`Clc1cc2c(cc1Cl)Oc1c(cc(Cl)c(Cl)c1Cl)O2` [PeCDD, 1,2,3,7,8-pentachlorodibenzodioxin] was tested, and the “REP Liver Cyp1b1 mRNA” value was 0.4.
In the case of `Clc1cc2c(cc1Cl)Oc1cc(Cl)c(Cl)cc1O2` [TCDD, 2,3,7,8-tetrachlorodibenzodioxin, reference compound], the “REP Liver Cyp1b1 mRNA” value is reported as 1.

Same assay, conditions: relative to TCDD; dose metric Syst adipose (ng/g lipid)
`Clc1cc2oc3c(Cl)c(Cl)c(Cl)cc3c2cc1Cl` [Congener 4-PeCDF, 2,3,4,7,8-pentachlorodibenzofuran] was tested, and the “REP Liver Cyp1b1 mRNA” value was 0.02.
For `Clc1ccc(-c2cc(Cl)c(Cl)c(Cl)c2Cl)cc1Cl` [PCB-156, 2,3,3´,4,4´,5-hexachlorobiphenyl], the “REP Liver Cyp1b1 mRNA” value was 0.00001.
For `Clc1cc2c(cc1Cl)Oc1c(cc(Cl)c(Cl)c1Cl)O2` [PeCDD, 1,2,3,7,8-pentachlorodibenzodioxin], the “REP Liver Cyp1b1 mRNA” value was 0.5.
In the case of `Clc1cc2c(cc1Cl)Oc1cc(Cl)c(Cl)cc1O2` [TCDD, 2,3,7,8-tetrachlorodibenzodioxin, reference compound], the “REP Liver Cyp1b1 mRNA” value is reported as 1.

Same assay, conditions: relative to TCDD; dose metric Syst liver (ng/g lipid)
With `Clc1cc2oc3c(Cl)c(Cl)c(Cl)cc3c2cc1Cl` [Congener 4-PeCDF, 2,3,4,7,8-pentachlorodibenzofuran] the “REP Liver Cyp1b1 mRNA” value was 0.01.
`Clc1ccc(-c2cc(Cl)c(Cl)c(Cl)c2Cl)cc1Cl` [PCB-156, 2,3,3´,4,4´,5-hexachlorobiphenyl] was tested, and the “REP Liver Cyp1b1 mRNA” value was 0.0003.
In the case of `Clc1cc2c(cc1Cl)Oc1c(cc(Cl)c(Cl)c1Cl)O2` [PeCDD, 1,2,3,7,8-pentachlorodibenzodioxin], the “REP Liver Cyp1b1 mRNA” value is reported as 0.2.
`Clc1cc2c(cc1Cl)Oc1cc(Cl)c(Cl)cc1O2` [TCDD, 2,3,7,8-tetrachlorodibenzodioxin, reference compound] was tested, and the “REP Liver Cyp1b1 mRNA” value was 1.

Same assay, conditions: relative to TCDD; dose metric Syst liver (ng/g liver)
For `Clc1cc2oc3c(Cl)c(Cl)c(Cl)cc3c2cc1Cl` [Congener 4-PeCDF, 2,3,4,7,8-pentachlorodibenzofuran], the “REP Liver Cyp1b1 mRNA” value was 0.02.
For `Clc1ccc(-c2cc(Cl)c(Cl)c(Cl)c2Cl)cc1Cl` [PCB-156, 2,3,3´,4,4´,5-hexachlorobiphenyl], the “REP Liver Cyp1b1 mRNA” value was 0.0004.
`Clc1cc2c(cc1Cl)Oc1c(cc(Cl)c(Cl)c1Cl)O2` [PeCDD, 1,2,3,7,8-pentachlorodibenzodioxin] was tested, and the “REP Liver Cyp1b1 mRNA” value was 0.3.
For `Clc1cc2c(cc1Cl)Oc1cc(Cl)c(Cl)cc1O2` [TCDD, 2,3,7,8-tetrachlorodibenzodioxin, reference compound], the “REP Liver Cyp1b1 mRNA” value was 1.

Same assay, conditions: relative to TCDD; dose metric Syst plasma (ng/g lipid)
In the case of `Clc1cc2oc3c(Cl)c(Cl)c(Cl)cc3c2cc1Cl` [Congener 4-PeCDF, 2,3,4,7,8-pentachlorodibenzofuran], the “REP Liver Cyp1b1 mRNA” value is reported as 0.3.
In the case of `Clc1ccc(-c2cc(Cl)c(Cl)c(Cl)c2Cl)cc1Cl` [PCB-156, 2,3,3´,4,4´,5-hexachlorobiphenyl], the “REP Liver Cyp1b1 mRNA” value is reported as 0.00002.
In the case of `Clc1cc2c(cc1Cl)Oc1c(cc(Cl)c(Cl)c1Cl)O2` [PeCDD, 1,2,3,7,8-pentachlorodibenzodioxin], the “REP Liver Cyp1b1 mRNA” value is reported as 0.6.
In the case of `Clc1cc2c(cc1Cl)Oc1cc(Cl)c(Cl)cc1O2` [TCDD, 2,3,7,8-tetrachlorodibenzodioxin, reference compound], the “REP Liver Cyp1b1 mRNA” value is reported as 1.

Same assay, conditions: single oral dose, day 3
With `Clc1cc2oc3c(Cl)c(Cl)c(Cl)cc3c2cc1Cl` [Congener 4-PeCDF, 2,3,4,7,8-pentachlorodibenzofuran] the “Effect on hepatic Cyp1b1 mRNA expression” value was “dose-dependently increased”.
For `Clc1ccc(-c2cc(Cl)c(Cl)c(Cl)c2)cc1Cl` [PCB-126, 3,3´,4,4´,5-pentachlorobiphenyl], the “Effect on hepatic Cyp1b1 mRNA expression” value was “did not induce”.
With `Clc1ccc(-c2cc(Cl)c(Cl)c(Cl)c2Cl)cc1Cl` [PCB-156, 2,3,3´,4,4´,5-hexachlorobiphenyl] the “Effect on hepatic Cyp1b1 mRNA expression” value was “dose-dependently increased”.
For `Clc1cc2c(cc1Cl)Oc1c(cc(Cl)c(Cl)c1Cl)O2` [PeCDD, 1,2,3,7,8-pentachlorodibenzodioxin], the “Effect on hepatic Cyp1b1 mRNA expression” value was “dose-dependently increased”.
For `Clc1cc2c(cc1Cl)Oc1cc(Cl)c(Cl)cc1O2` [TCDD, 2,3,7,8-tetrachlorodibenzodioxin, reference compound], the “Effect on hepatic Cyp1b1 mRNA expression” value was “dose-dependently increased”.
